≈ marks a conversion by molar mass, not a printed value. Where a SMILES comes first, the peptide text is derived from it. Bridges are numbered along the chain shown (N, C = ends). [ ]: non-standard residue; d: D form. The star is where a group is joined. Ileψ(thiazoline)Cys = CC[C@H](C)[C@H](N)C1=N[C@H](C(=O)*)CS1; dOrn = NCCC[C@@H](N)C(=O)O

The record followed here is ChEMBL document CHEMBL4823282, “Novel Broad-Spectrum Antimicrobial Peptide Derived from Anoplin and Its Activity on Bacterial Pneumonia in Mice” (J Med Chem, 2021).

The nature of data set [1]: Cytotoxicity against human glomerular mesangial cells incubated for 12 hrs by MTT assay. The data set is classed as cell-based. The conditions noted are these: Glomerular mesangial cell. (Tetrazolium assays rely on reduction of a dye to a coloured formazan, in cell work by metabolically active cells.)
For data set [2], the system named is Bacteria. Kind of data set: Antibacterial activity against bacteria incubated for 18 hrs by CLSI based broth dilution method. The class given is functional. A general note: Dilution methods test growth across graded concentrations, often in twofold steps.
A further data set relates to Bacillus subtilis. In words: Antibacterial activity against Bacillus subtilis ATCC 23857 incubated for 18 hrs by CLSI based broth dilution method. The class given is functional.
In a further data set the test system is Erythrocyte. In words: Hemolytic activity in BALB/C mouse erythrocytes incubated for 1 hr by absorbance method. The data set is classed as ADME, cell-based.
In data set [3] the test system is Bacteria. In words: Antibacterial activity against Gram-negative bacteria incubated for 18 hrs by CLSI based broth dilution method. The class given is functional.
For another data set, the system named is Escherichia coli. Kind of data set: Antibacterial activity against Escherichia coli ATCC 25922 incubated for 18 hrs by CLSI based broth dilution method. The data set is classed as functional.
In the next data set the test system is Enterococcus faecalis. Kind of data set: Antibacterial activity against Enterococcus faecalis ATCC 29212 incubated for 18 hrs by CLSI based broth dilution method. The data set is classed as functional.
Data set [4] concerns Staphylococcus epidermidis. Kind of data set: Antibacterial activity against Staphylococcus epidermidis ATCC 12228 incubated for 18 hrs by CLSI based broth dilution method. The data set is classed as functional.
A short description of data set [5]: Selectivity ratio of MHC10 for BALB/C mouse erythrocytes to MIC for gram positive bacteria. The data set is classed as toxicity.
Data set [6] in a line: Selectivity ratio of MHC10 for BALB/C mouse erythrocytes to MIC for fungi. The class given is toxicity.
The test system of a further data set is Staphylococcus aureus. In words: Antibacterial activity against Staphylococcus aureus ATCC 25923 incubated for 18 hrs by CLSI based broth dilution method. The class given is functional.
Another data set deals with Fungi. Kind of data set: Antibacterial activity against fungi incubated for 18 hrs by CLSI based broth dilution method. The class given is functional.
The nature of data set [7]: Selectivity ratio of MHC10 for BALB/C mouse erythrocytes to MIC for gram-negative bacteria. The data set is classed as toxicity.
Data set [8] relates to Bacteria. In words: Antibacterial activity against Gram-positive bacteria incubated for 18 hrs by CLSI based broth dilution method. The data set is classed as functional.
For another data set, the system named is Acinetobacter baumannii. In words: Antibacterial activity against Acinetobacter baumannii ATCC 19606 incubated for 18 hrs by CLSI based broth dilution method. The following applies: ATCC 19606 = CIP 70.34 = JCM 6841. The data set is classed as functional.
The subject of a further data set is Klebsiella pneumoniae. Kind of data set: Antibacterial activity against Klebsiella pneumoniae ATCC 700603 incubated for 18 hrs by CLSI based broth dilution method. The class given is functional.
A short description of data set [9]: Selectivity ratio of MHC10 for BALB/C mouse erythrocytes to MIC for bacteria. The data set is classed as toxicity.
A further data set deals with Pseudomonas aeruginosa. In words: Antibacterial activity against Pseudomonas aeruginosa ATCC 27853 incubated for 18 hrs by CLSI based broth dilution method. The data set is classed as functional.

As a reminder, the IC50 is the point on the concentration scale where inhibition reaches its midpoint. Lower therefore signals inhibition by little substance. In general, MIC refers to the lowest concentration that inhibits growth of the organism. `N=C(N)NCCC[C@H](NC(=O)[C@H](CCCNC(=N)N)NC(=O)[C@H](Cc1c[nH]c2ccccc12)NC(=O)[C@H](CCCNC(=N)N)NC(=O)[C@H](CCCNC(=N)N)NC(=O)[C@H](Cc1c[nH]c2ccccc12)NC(=O)[C@H](Cc1c[nH]c2ccccc12)NC(=O)[C@@H](N)CCCNC(=N)N)C(=O)N[C@@H](Cc1c[nH]c2ccccc12)C(=O)N[C@@H](Cc1c[nH]c2ccccc12)C(N)=O` (H-RWWRRWRRWW-NH2) displayed an IC50 in data set [1] of 11.2 µM. In addition, the MIC with Bacteria [2] worked out at 17.4 µM (≈ 30.2 µg/mL); with Bacillus subtilis, 4 µM (≈ 6.92 µg/mL); in the data set on Bacteria [3], 22.6 µM (≈ 39.1 µg/mL); against Escherichia coli, 32 µM (≈ 55.3 µg/mL); in the data set on Enterococcus faecalis it was 32 µM (≈ 55.3 µg/mL); in data set [4], 32 µM (≈ 55.3 µg/mL). Moreover, the MIC in the data set on Staphylococcus aureus is 8 µM (≈ 13.8 µg/mL); with Fungi, 17.4 µM (≈ 30.2 µg/mL); with Bacteria [8], 13.5 µM (≈ 23.3 µg/mL); in the data set with Acinetobacter baumannii, 128 µM (≈ 221 µg/mL); in the data set on Klebsiella pneumoniae, 32 µM (≈ 55.3 µg/mL); in the data set on Pseudomonas aeruginosa, 32 µM (≈ 55.3 µg/mL). Moreover, the MHC10 in the data set with Erythrocyte was found to be 43.67 µM. In addition, the selectivity ratio at 18 h in data set [5] is 3.23. The figures for the selectivity ratio in data set [6], in [7] and in data set [9] were 2.5, 1.93 and 2.5, respectively.

For the molecule `CC1(C)S[C@@H]2[C@H](NC(=O)Cc3ccccc3)C(=O)N2[C@H]1C(=O)O` [PENICILLIN G], the MIC in the data set on Bacillus subtilis was less than 1 µM; in the data set on Escherichia coli it was 64 µM (≈ 21.4 µg/mL); with Enterococcus faecalis, 4 µM (≈ 1.34 µg/mL); in data set [4], 16 µM (≈ 5.35 µg/mL); against Staphylococcus aureus, less than 1 µM; in the data set on Acinetobacter baumannii, 128 µM (≈ 42.8 µg/mL). Further, the MIC is no less than 512 µM with Klebsiella pneumoniae and 64 µM (≈ 21.4 µg/mL) in the data set on Pseudomonas aeruginosa.

Molecule `C[C@@H](O)[C@H](NC(=O)[C@H](CCCCN)NC(=O)[C@H](Cc1c[nH]c2ccccc12)NC(=O)[C@H](CCCNC(=N)N)NC(=O)[C@H](CCCCN)NC(=O)[C@H](Cc1c[nH]c2ccccc12)NC(=O)[C@H](Cc1c[nH]c2ccccc12)NC(=O)CN)C(=O)N[C@@H](Cc1c[nH]c2ccccc12)C(=O)N[C@@H](Cc1c[nH]c2ccccc12)C(N)=O` (H-GWWKRWKTWW-NH2) had an IC50 in data set [1] of 49.5 µM. In addition, the MIC with Bacteria [2] was 9.51 µM (≈ 14.4 µg/mL); in the data set on Bacillus subtilis it was 4 µM (≈ 6.08 µg/mL); against Bacteria [3], 13.5 µM (≈ 20.5 µg/mL); against Escherichia coli, 16 µM (≈ 24.3 µg/mL); in the data set with Enterococcus faecalis it was 16 µM (≈ 24.3 µg/mL); in data set [4] it was 4 µM (≈ 6.08 µg/mL). The MIC in the data set with Staphylococcus aureus came out at 8 µM (≈ 12.2 µg/mL); against Fungi it was 9.51 µM (≈ 14.4 µg/mL); with Bacteria [8], 6.7 µM (≈ 10.2 µg/mL); in the data set on Acinetobacter baumannii, 16 µM (≈ 24.3 µg/mL); against Klebsiella pneumoniae it was 16 µM (≈ 24.3 µg/mL); in the data set on Pseudomonas aeruginosa, 16 µM (≈ 24.3 µg/mL). Besides, the MHC10 in the data set on Erythrocyte came out at 40.79 µM. In addition, the selectivity ratio at 18 h in data set [5] was 6.09. Moreover, the selectivity ratio in data set [6] came to 4.29; in data set [7], 3.02; in data set [9] it was 4.29.

Turning to `CN[C@@H]1[C@H](O[C@H]2[C@H](O[C@H]3[C@H](O)[C@@H](O)[C@H](N=C(N)N)[C@@H](O)[C@@H]3N=C(N)N)O[C@@H](C)[C@]2(O)C=O)O[C@@H](CO)[C@H](O)[C@H]1O` [STREPTOMYCIN], the MIC with Bacillus subtilis is 2 µM (≈ 1.16 µg/mL); in the data set on Escherichia coli it was 4 µM (≈ 2.33 µg/mL); against Enterococcus faecalis, 16 µM (≈ 9.31 µg/mL); in [4], 32 µM (≈ 18.6 µg/mL); in the data set with Staphylococcus aureus it was less than 1 µM; against Acinetobacter baumannii, 2 µM (≈ 1.16 µg/mL). Moreover, the MIC in the data set with Klebsiella pneumoniae was less than 1 µM; against Pseudomonas aeruginosa, 4 µM (≈ 2.33 µg/mL).

Turning to `CC(C)C[C@H](NC(=O)[C@H](C)NC(=O)[C@@H](NC(=O)[C@H](CCCCN)NC(=O)[C@H](C)NC(=O)[C@H](CCCNC(=N)N)NC(=O)[C@H](CCCCN)NC(=O)[C@H](CC(C)C)NC(=O)[C@H](C)NC(=O)CN)[C@@H](C)O)C(N)=O` (H-GALKRAKTAL-NH2), the IC50 in [1] is no less than 512 µM. Besides, the MIC (in the data set with Bacteria [2]; against Bacillus subtilis; in the data set with Bacteria [3]; against Escherichia coli; in the data set with Enterococcus faecalis; in [4]) was no less than 512 µM throughout. Besides, the MIC with Staphylococcus aureus, with Fungi, against Bacteria [8], in the data set with Acinetobacter baumannii, with Klebsiella pneumoniae and against Pseudomonas aeruginosa was no less than 512 µM throughout. The MHC10 entry with Erythrocyte is recorded as “>= 512 uM”. Further, the selectivity ratio at 18 h in data set [5] was 1. Further, the selectivity ratio in [6], in data set [7] and in [9] was 1 throughout.

As to `CO/N=C(\C(=O)N[C@@H]1C(=O)N2C(C(=O)O)=C(COC(C)=O)CS[C@H]12)c1csc(N)n1` [CEFOTAXIME], the minimum inhibitory concentration (MIC) against Bacillus subtilis is less than 1 µM; in the data set on Escherichia coli it was less than 1 µM; against Enterococcus faecalis it was no less than 512 µM; in data set [4] it was 2 µM (≈ 0.911 µg/mL); against Staphylococcus aureus, 2 µM (≈ 0.911 µg/mL); in the data set on Acinetobacter baumannii, 32 µM (≈ 14.6 µg/mL). For the same molecule, the MIC was 8 µM (≈ 3.64 µg/mL) in the data set with Klebsiella pneumoniae and less than 1 µM against Pseudomonas aeruginosa.

Regarding `CC[C@H](C)[C@H](N)C1=N[C@H](C(=O)N[C@@H](CC(C)C)C(=O)N[C@H](CCC(=O)O)C(=O)N[C@H](C(=O)N[C@H]2CCCCNC(=O)[C@H](CC(N)=O)NC(=O)[C@@H](CC(=O)O)NC(=O)[C@H](Cc3cnc[nH]3)NC(=O)[C@@H](Cc3ccccc3)NC(=O)[C@H]([C@@H](C)CC)NC(=O)[C@@H](CCCN)NC2=O)[C@@H](C)CC)CS1` [BACITRACIN] ({Ileψ(thiazoline)Cys}-L[dE]IK[dOrn]I[dF]H[dD]N; lactam 4-C), the MIC against Bacillus subtilis is no less than 512 µM; with Escherichia coli it was no less than 512 µM; in the data set with Enterococcus faecalis, 32 µM (≈ 45.5 µg/mL); in [4], 8 µM (≈ 11.4 µg/mL); in the data set with Staphylococcus aureus it was 16 µM (≈ 22.8 µg/mL); against Acinetobacter baumannii, no less than 128 µM. In addition, the MIC in the data set with Klebsiella pneumoniae and against Pseudomonas aeruginosa was no less than 512 µM in each case.

Regarding `C[C@@H](O)[C@H]1C(=O)N2C(C(=O)O)=C(SCCNC=N)C[C@H]12` [IMIPENEM ANHYDROUS], the MIC (in the data set with Bacillus subtilis; in the data set on Escherichia coli; with Enterococcus faecalis; in data set [4]; in the data set with Staphylococcus aureus; against Acinetobacter baumannii) was less than 1 µM in each case. The MIC in the data set with Klebsiella pneumoniae and in the data set on Pseudomonas aeruginosa was less than 1 µM throughout.

As to `NC[C@H]1O[C@H](O[C@H]2[C@H](O)[C@@H](O[C@H]3O[C@H](CO)[C@@H](O)[C@H](N)[C@H]3O)[C@H](N)C[C@@H]2N)[C@H](O)[C@@H](O)[C@@H]1O` [KANAMYCIN], the minimal inhibitory concentration (MIC) was less than 1 µM against Bacillus subtilis; 8 µM (≈ 3.88 µg/mL) with Escherichia coli; 8 µM (≈ 3.88 µg/mL) in the data set with Enterococcus faecalis; less than 1 µM in data set [4]; less than 1 µM in the data set on Staphylococcus aureus; 4 µM (≈ 1.94 µg/mL) against Acinetobacter baumannii. For the same molecule, the MIC against Klebsiella pneumoniae is 32 µM (≈ 15.5 µg/mL); with Pseudomonas aeruginosa, 8 µM (≈ 3.88 µg/mL).

In the case of `C[C@@H](O)[C@H]1C(=O)N2C(C(=O)O)=C(S[C@@H]3CN[C@H](C(=O)N(C)C)C3)[C@H](C)[C@H]12` [MEROPENEM], the MIC with Bacillus subtilis is less than 1 µM; against Escherichia coli, less than 1 µM; in the data set with Enterococcus faecalis it was 4 µM (≈ 1.53 µg/mL); in data set [4], less than 1 µM; with Staphylococcus aureus, less than 1 µM; with Acinetobacter baumannii, less than 1 µM. Further, the MIC in the data set with Klebsiella pneumoniae and in the data set with Pseudomonas aeruginosa was less than 1 µM each time.
